Key:
Format in all cases: in vivo
Nilaparvata lugens = Nilaparvata lugens spray test; conditions: Nilaparvata lugens, in Oryza sativa, 96 h
Description: Nilaparvata lugens—Spray Test
(§1) To produce a suitable preparation of active compound, 1 part by weight of active compound is mixed with the stated amount of solvents and is diluted with water, containing an emulsifier concentration of 1000 ppm, to the desired concentration. Further test concentrations are prepared by dilution with emulsifier containing water.
Rice plants (Oryza sativa) are sprayed with a preparation of the active ingredient of the desired concentration and the plants are infested with the brown planthopper (Nilaparvata lugens).
After 4 days mortality in % is determined. 100% means all planthoppers have been killed and 0% means none of the planthoppers have been killed.

Spodoptera frugiperda = Spodoptera frugiperda spray test; conditions: in Zea mays, 168 h
Description: Spodoptera frugiperda—Spray Test
as §1
Maize (Zea mays) leaf sections are sprayed with a preparation of the active ingredient of the desired concentration. Once dry, the leaf sections are infested with fall armyworm larvae (Spodoptera frugiperda).
After 7 days mortality in % is determined. 100% means all caterpillars have been killed and 0% means none of the caterpillars have been killed.

Myzus persicae = Myzus persicae oral test; conditions: 120 h
Description: To produce a suitable preparation of active compound, 1 part by weight of active compound is mixed with the stated amount of solvent, and the concentrate is diluted with water to the desired concentration.
50 μl compound solution is filled in microtiter plates and 150 μl IPL41 insect medium (33%+15% sugar) is added to obtain a total volume of 200 μl per well. Afterwards the plates are sealed with parafilm through which a mixed population of the green peach aphid (Myzus persicae) can suck on the compound preparation.
After 5 days mortality in % is determined. 100% means all aphids have been killed and 0% means none of the aphids have been killed.

Diabrotica balteata = Diabrotica balteata spray test; conditions: Diabrotica balteata, 168 h; 160 μg/well, wheat seeds, after 7 days; read-out: efficacy (seedlings grown)
Description: Diabrotica balteata—Spray Test
as §1, with “solvent,” for “solvents”, “and the concentrate” for “and”
Soaked wheat seeds (Triticum aestivum) are placed in a multiple well plate filled with agar and some water and are incubated for 1 day to germinate (5 seeds per well). The germinated wheat seeds are sprayed with a test solution containing the desired concentration of the active ingredient. Afterwards each unit is infected with 10-20 larvae of the banded cucumber beetle (Diabrotica balteata).
After 7 days efficacy in % is determined. 100% means all the seedlings have grown up like in the untreated, uninfected control; 0% means none of the seedlings have grown.

Nezara viridula = Nezara viridula spray test; conditions: in Hordeum vulgare, 96 h
Description: Nezara viridula—Spray Test
as §1, with “solvent,” for “solvents”, “and the concentrate” for “and”
Barley plants (Hordeum vulgare) infested with larvae of the southern green stink bug (Nezara viridula) are sprayed with a test solution containing the desired concentration of the active ingredient.
After 4 days mortality in % is determined. 100% means all the stink bugs have been killed; 0% means none of the stink bugs have been killed.

Boophilus microplus = Boophilus microplus injection test; conditions: Rhipicephalus microplus, 168 h, 20 μg/animal, egg deposition after 7 days, read-out: efficacy (infertile eggs)
Description: Boophilus microplus—Injection Test
(§2) Solvent: dimethyl sulfoxide
To produce a suitable preparation of active compound, 10 mg of active compound are dissolved in 0.5 ml solvent, and the concentrate is diluted with solvent to the desired concentration.
Five adult engorged female ticks (Boophilus microplus) are injected with 1 μl compound solution into the abdomen. The ticks are transferred into replica plates and incubated in a climate chamber.
After 7 days egg deposition of fertile eggs is monitored. Eggs where fertility is not visible are stored in a climate chamber till hatching after about 42 days. An efficacy of 100% means all eggs are infertile; 0% means all eggs are fertile.

[1] = system: Aedes aegypti strain MONHEIM; test: Aedes aegypti test (AEDSAE surface treatment & contact assay); conditions: 24 hours after contact, read-out: efficacy (mortality); for mortality at 4 mg/m2: surface concentration 4 mg/m^2, 30 minutes exposure; for mortality at 20 mg/m2: surface concentration 20 mg/m^2, 30 minutes exposure
Description: Aedes aegypti Test (AEDSAE Surface Treatment & Contact Assay)
(§3) Solvent: Aceton+2000 ppm rapeseed oil methyl ester (RME)
(§4) In order to produce a sufficient, active ingredient containing solution it is necessary to solve the test-compound in the solvent-mix (Acetone at 2 mg/ml/RME 2000 ppm). This solution is pipetted onto a glazed tile and after evaporation of the Acetone, adult mosquitoes of the species Aedes aegypti strain MONHEIM are placed onto the dried surface. The exposure time is 30 minutes.
(§5) Mortality in percent (%) is determined 24 hours after contact to the treated surface. 100% mortality means that all test-insects are dead, whereas 0% means that not a single insect died.

[2] = system: Culex quinquefasciatus strain P00; test: Culex quinquefasciatus test (CULXFA surface treatment & contact assay); conditions: 24 hours after contact, read-out: efficacy (mortality); for mortality at 20 mg/m2: surface concentration 20 mg/m^2, 30 minutes exposure; for mortality at 4 mg/m2: surface concentration 4 mg/m^2, 30 minutes exposure
Description: Culex quinquefasciatus Test (CULXFA Surface Treatment & Contact Assay)
as §3
as §4, with “Culex quinquefasciatus” for “Aedes aegypti”, “P00” for “MONHEIM”
as §5

Ctenocephalides felis [3] = test: Ctenocephalides felis oral test; conditions: Ctenocephalides felis, in Bos taurus, po, 48 h
Description: Ctenocephalides felis—Oral Test
as §2
To produce a suitable preparation of active compound, 10 mg of active compound are dissolved in 0.5 ml solvent, and the concentrate is diluted with cattle blood to the desired concentration.
Approximately 20 adult unfed cat fleas (Ctenocephalides felis) are placed in flea chambers. The blood chamber, sealed with parafilm on the bottom, are filled with cattle blood supplied with compound solution and placed on the gauze covered top of the flea chamber, so that the fleas are able to suck the blood. The blood chamber is heated to 37° C. whereas the flea chamber is kept at room temperature.
After 2 days mortality in % is determined. 100% means all the fleas have been killed; 0% means none of the fleas have been killed.

[4] = system: Anopheles funestus strain FUMOZ-R; test: Anopheles funestus test (ANPHFU surface treatment & contact assay); conditions: 24 hours after contact, read-out: efficacy (mortality); for mortality at 4 mg/m2: surface concentration 4 mg/m^2, 30 minutes exposure
Description: Anopheles funestus Test (ANPHFU Surface Treatment & Contact Assay)
as §3
as §4, with “Anopheles funestus” for “Aedes aegypti”, “FUMOZ-R (Hunt et al., Med Vet Entomol. 2005 September; 19(3):271-5)” for “MONHEIM”
as §5

Ctenocephalides felis [5] = test: Ctenocephalides felis in-vitro contact test adult cat flea; conditions: Ctenocephalides felis; 5 μg/cm^2 (=500 g/ha), after 48 hours; read-out: efficacy (fleas dead or moribund)
Description: Ctenocephalides felis—In-Vitro Contact Test Adult Cat Flea
9 mg compound is solved in 1 ml acetone and diluted with acetone to the desired concentration. 250 μl of the test solution is filled in 25 ml glass test tubes and homogeneously distributed on the inner walls by rotation and tilting on a shaking device (2 h at 30 rpm). With a compound concentration of 900 ppm, an inner surface of 44.7 cm^2 and a homogeneous distribution, a dose of 5 μg/cm^2 is achieved.
After the solvent has evaporated, each test tube is filled with 5-10 adult cat fleas (Ctenocephalides felis), closed with a perforated lid and incubated in a lying position at room temperature and relative humidity. After 48 hours efficacy is determined. The fleas are patted on the ground of the tubes and are incubated on a heating plate at 45-50° C. for at most 5 minutes. Immotile or uncoordinated moving fleas, which are not able to escape the heat by climbing upwards, are marked as dead or moribund.
An efficacy of 100% means all fleas are dead or moribund; 0% means no fleas are dead or moribund.

SMILES | mortality at 500 g/ha (Nilaparvata lugens) [%] | mortality at 500 g/ha (Spodoptera frugiperda) [%] | pest or weed control at 160 µg/disc, 160 µg/well (Diabrotica balteata) [%] | mortality at 500 g/ha (Nezara viridula) [%] | mortality at 20 mg/m2 [1] [%] | mortality at 100 ppm (Ctenocephalides felis [3]) [%] | other results
CC(c1ncnn1-c1ncccn1)N(CC1CC1)C(=O)c1c(F)cccc1F (stereo not shown) [Example I-018] | 100 | – | – | – | – | – | –
C[C@H](NC(=O)c1cc(Cl)cc(S(=O)(=O)C(F)(F)F)c1)c1ncnn1-c1ncccn1 [Example I-033, 3-chloro-N-{(1S)-1-[1-(pyrimidin-2-yl)-1H-1,2,4-triazol-5-yl]ethyl}-5-[(trifluoromethyl)sulfonyl]benzamide] | 100 | 100 | 100 | 100 | – | – | mortality at 4 ppm (Myzus persicae): 100%
CC(NC(=O)c1cc(Cl)cc(-n2cncn2)c1)c1ncnn1-c1ncccn1 (stereo not shown) [Example I-049] | 100 | – | 100 | 100 | 90 to 100 | 100 | pest or weed control at 0.02 mg (Boophilus microplus): 100%; mortality at 4 mg/m2 [1]: 80 to 100%; mortality at 20 mg/m2 [2]: 80 to 100%; mortality at 4 mg/m2 [4]: 85 to 100%; mortality at 20 mg/m2 ([4]; surface concentration 20 mg/m^2, 30 minutes exposure): 85 to 100%
CC(C)S(=O)(=O)c1cc(Cl)cc(C(=O)N[C@@H](C)c2ncnn2-c2ncccn2)c1 [Example I-051, 3-chloro-5-(isopropylsulfonyl)-N-{(1S)-1-[1-(pyrimidin-2-yl)-1H-1,2,4-triazol-5-yl]ethyl}benzamide] | – | 100 | 100 | 100 | – | 100 | pest or weed control at 0.02 mg (Boophilus microplus): 100%; pest or weed control at 5 µg/cm2, 5 µg/cm2 (Ctenocephalides felis [5]): 80%; mortality at 4 ppm (Myzus persicae): 100%
COC[C@H](NC(=O)c1cc(Cl)cc(S(C)(=O)=O)c1)c1ncnn1-c1ncccn1 [Example I-059] | 100 | – | – | – | – | 100 | pest or weed control at 5 µg/cm2, 5 µg/cm2 (Ctenocephalides felis [5]): 80%
C[C@H](NC(=O)c1cc(Cl)cc(S(C)(=O)=O)c1)c1ncnn1-c1ccc(OC(F)F)cn1 [Example I-063] | – | 100 | 100 | 100 | 90 to 100 | – | mortality at 4 mg/m2 [1]: 80 to 100%; mortality at 4 mg/m2 [2]: 80 to 100%; mortality at 20 mg/m2 [2]: 80 to 100%; mortality at 4 ppm (Myzus persicae): 100%
C[C@@H](NC(=O)c1cc(Cl)cc(S(=O)(=O)C(F)(F)F)c1)c1ncnn1-c1nccs1 [Example I-077] | – | 100 | 100 | – | 90 to 100 | 90 | pest or weed control at 0.02 mg (Boophilus microplus): 100%
C[C@@H](NC(=O)c1cc(Cl)cc(S(C)(=O)=O)c1)c1ncnn1-c1ccc(C(F)(F)F)cn1 [Example I-089] | – | 100 | 100 | 100 | 90 to 100 | 100 | mortality at 4 mg/m2 [1]: 80 to 100%; mortality at 4 mg/m2 [2]: 80 to 100%; mortality at 20 mg/m2 [2]: 80 to 100%; pest or weed control at 5 µg/cm2, 5 µg/cm2 (Ctenocephalides felis [5]): 100%
C[C@H](NC(=O)c1cc(Cl)cc(S(=O)(=O)CC(F)(F)F)c1)c1ncnn1-c1ncccn1 [Example I-093, 3-chloro-N-{(1S)-1-[1-(pyrimidin-2-yl)-1H-1,2,4-triazol-5-yl]ethyl}-5-[(2,2,2-trifluoroethyl)sulfonyl]benzamide] | – | – | 100 | 100 | 90 to 100 | – | mortality at 4 mg/m2 [1]: 80 to 100%; mortality at 4 mg/m2 [2]: 80 to 100%; mortality at 20 mg/m2 [2]: 80 to 100%; mortality at 4 ppm (Myzus persicae): 90%; mortality at 4 mg/m2 [4]: 85 to 100%
CC(NC(=O)c1cc(Cl)cc(-n2ccc(C(F)(F)F)n2)c1)c1ncnn1-c1ncccn1 (stereo not shown) [Example I-094] | – | 83 | 100 | – | – | – | –
C[C@@H](NC(=O)c1cc(Cl)cc(S(C)(=O)=O)c1)c1nc(C(F)(F)F)nn1-c1ccc(C#N)cn1 [Example I-110] | – | 100 | – | 100 | – | – | –
C[C@@H](NC(=O)c1cncc(-c2ccc(F)cc2)c1)c1ncnn1-c1ncccn1 [Example I-111] | 100 | – | – | – | – | – | –
C[C@@H](NC(=O)c1cc(F)cc(C2CC2)c1)c1ncnn1-c1ccc(C#N)cn1 [Example I-113] | – | 100 | 100 | 90 | – | – | –
C[C@H](NC(=S)c1cc(F)cc(C2CC2)c1)c1ncnn1-c1ccc(C#N)cn1 [Example I-120, N-{(1S)-1-[1-(5-cyanopyridin-2-yl)-1H-1,2,4-triazol-5-yl]ethyl}-3-cyclopropyl-5-fluorobenzenecarbothioamide] | 100 | 100 | 100 | 100 | – | – | –
C[C@@H](NC(=O)c1cc(-c2ccc(F)cc2)cc(C(F)(F)F)c1)c1ncnn1-c1ccc(C#N)cn1 [Example I-123] | – | 100 | 100 | – | – | – | –
